In ChEMBL document CHEMBL1909046, “DrugMatrix in vitro pharmacology data”:

What was measured:
[1] = DRUGMATRIX: Sigma2 radioligand binding (ligand: [3H] Ifenprodil); type: cell membranes, Rattus norvegicus, Wistar, Brain, Membrane; conditions: Not Active = under 50% inhibition at 10 µM
[2] = target: Tyrosine-protein kinase Fyn (Homo sapiens, UniProt P06241); assay: biochemical; type: cell-based, Insect cells; conditions: insect cells;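 further: enzymatic inhibition of Fyn kinase activity measured with Poly(Glu:Tyr) as the phosphorylation substrate; in other assays of this panel Not Active means under 50% inhibition at 10 µM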
Sequence of Tyrosine-protein kinase Fyn (P06241 whole entry): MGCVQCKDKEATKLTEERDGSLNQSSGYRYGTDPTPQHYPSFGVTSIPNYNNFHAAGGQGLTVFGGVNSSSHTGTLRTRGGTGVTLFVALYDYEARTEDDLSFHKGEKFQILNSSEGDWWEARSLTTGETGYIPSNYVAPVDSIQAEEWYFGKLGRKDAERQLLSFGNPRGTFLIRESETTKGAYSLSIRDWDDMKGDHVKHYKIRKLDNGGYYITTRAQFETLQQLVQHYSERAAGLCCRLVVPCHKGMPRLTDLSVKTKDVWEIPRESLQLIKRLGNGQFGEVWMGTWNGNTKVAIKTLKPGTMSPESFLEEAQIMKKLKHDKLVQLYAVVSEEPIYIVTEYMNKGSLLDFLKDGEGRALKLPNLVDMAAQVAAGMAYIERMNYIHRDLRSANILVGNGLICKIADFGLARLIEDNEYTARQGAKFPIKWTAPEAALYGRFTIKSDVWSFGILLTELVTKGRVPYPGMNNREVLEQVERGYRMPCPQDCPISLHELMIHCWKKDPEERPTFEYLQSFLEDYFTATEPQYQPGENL

Adenosine receptor A3 = target: T1, Adenosine receptor A3 (Homo sapiens, UniProt P0DMS8); type: cell membranes, CHO-K1, Membrane; conditions: cho-k1;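 further: radioligand binding assay with AB-MECA serving as the labeled ligand; in other assays of this panel Not Active means under 50% inhibition at 10 µM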
T1 sequence (P0DMS8 whole entry): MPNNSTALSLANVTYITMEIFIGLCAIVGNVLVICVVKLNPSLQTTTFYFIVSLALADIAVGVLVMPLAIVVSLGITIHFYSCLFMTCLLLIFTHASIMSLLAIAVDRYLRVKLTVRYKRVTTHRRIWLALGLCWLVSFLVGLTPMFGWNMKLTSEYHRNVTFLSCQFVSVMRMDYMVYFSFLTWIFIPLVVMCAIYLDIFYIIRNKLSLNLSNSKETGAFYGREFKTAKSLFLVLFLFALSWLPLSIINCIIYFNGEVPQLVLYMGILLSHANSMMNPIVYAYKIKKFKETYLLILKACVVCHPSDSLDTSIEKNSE

Leukotriene C4 synthase = target: T2, Leukotriene C4 synthase (Cavia porcellus, UniProt A6XA80); assay: biochemical; type: tissue-based, Lung;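 further: enzyme inhibition assay of leukotriene C4 synthase, using LTA4 as the substrate; in other assays of this panel Not Active means under 50% inhibition at 10 µM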
T2 sequence (A6XA80 whole entry): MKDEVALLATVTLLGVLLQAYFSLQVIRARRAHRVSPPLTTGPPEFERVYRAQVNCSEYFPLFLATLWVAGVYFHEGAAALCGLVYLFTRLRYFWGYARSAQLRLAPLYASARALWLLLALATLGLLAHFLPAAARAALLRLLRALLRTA

[3] = target: T3, Alpha-1D adrenergic receptor (Homo sapiens, UniProt P25100); type: cell membranes, HEK293, Membrane; conditions: hek293; further: in other assays of this panel Not Active means under 50% inhibition at 10 µM
T3 sequence (P25100 whole entry): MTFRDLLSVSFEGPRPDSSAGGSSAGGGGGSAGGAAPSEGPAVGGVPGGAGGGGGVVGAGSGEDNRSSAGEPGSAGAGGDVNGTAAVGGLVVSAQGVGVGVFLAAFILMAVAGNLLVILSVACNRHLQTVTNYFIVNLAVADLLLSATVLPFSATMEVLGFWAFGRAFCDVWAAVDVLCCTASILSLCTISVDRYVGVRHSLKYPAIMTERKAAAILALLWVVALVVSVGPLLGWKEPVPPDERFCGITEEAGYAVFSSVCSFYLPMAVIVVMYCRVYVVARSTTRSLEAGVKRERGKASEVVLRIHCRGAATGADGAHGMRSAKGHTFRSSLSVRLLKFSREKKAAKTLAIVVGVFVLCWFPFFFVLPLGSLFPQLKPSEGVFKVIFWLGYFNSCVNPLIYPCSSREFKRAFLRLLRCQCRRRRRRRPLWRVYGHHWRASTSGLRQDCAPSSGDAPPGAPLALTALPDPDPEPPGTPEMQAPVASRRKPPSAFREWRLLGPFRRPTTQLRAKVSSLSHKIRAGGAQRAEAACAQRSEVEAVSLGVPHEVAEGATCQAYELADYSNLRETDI

Cannabinoid receptor 1 = Cannabinoid receptor 1 (Homo sapiens, UniProt P21554); type: cell membranes, Membrane; conditions: chem-1; further: in other assays of this panel Not Active means under 50% inhibition at 10 µM
Sequence of Cannabinoid receptor 1 (P21554 whole entry): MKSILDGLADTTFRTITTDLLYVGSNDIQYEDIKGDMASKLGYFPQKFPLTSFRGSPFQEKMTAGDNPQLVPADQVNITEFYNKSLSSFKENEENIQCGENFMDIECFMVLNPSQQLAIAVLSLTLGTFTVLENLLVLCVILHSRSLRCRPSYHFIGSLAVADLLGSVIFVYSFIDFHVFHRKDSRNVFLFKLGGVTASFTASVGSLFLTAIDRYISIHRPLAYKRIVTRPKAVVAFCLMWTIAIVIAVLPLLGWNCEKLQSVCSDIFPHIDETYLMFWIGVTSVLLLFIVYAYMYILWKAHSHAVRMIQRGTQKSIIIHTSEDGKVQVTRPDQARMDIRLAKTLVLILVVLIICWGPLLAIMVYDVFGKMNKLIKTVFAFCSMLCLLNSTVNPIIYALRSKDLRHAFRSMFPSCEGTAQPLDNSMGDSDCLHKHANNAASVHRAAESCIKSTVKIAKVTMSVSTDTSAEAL

Substance-K receptor = target: T4, Substance-K receptor (Homo sapiens, UniProt P21452); type: cell membranes, CHO, Membrane; conditions: cho; further: in other assays of this panel Not Active means under 50% inhibition at 10 µM
T4 sequence (P21452 whole entry): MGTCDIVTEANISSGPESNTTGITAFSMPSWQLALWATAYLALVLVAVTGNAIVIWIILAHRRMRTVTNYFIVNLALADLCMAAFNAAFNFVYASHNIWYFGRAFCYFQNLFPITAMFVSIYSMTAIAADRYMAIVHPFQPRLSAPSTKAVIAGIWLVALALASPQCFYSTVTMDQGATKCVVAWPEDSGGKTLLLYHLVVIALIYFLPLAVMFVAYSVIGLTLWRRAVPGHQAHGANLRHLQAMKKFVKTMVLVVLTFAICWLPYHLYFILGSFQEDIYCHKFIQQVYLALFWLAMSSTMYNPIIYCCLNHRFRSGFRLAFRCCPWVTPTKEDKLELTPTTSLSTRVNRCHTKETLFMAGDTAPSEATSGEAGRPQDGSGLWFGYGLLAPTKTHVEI

Acetylcholinesterase = Acetylcholinesterase (Homo sapiens, UniProt P22303); assay: DRUGMATRIX: Acetylcholinesterase enzyme inhibition (substrate: acetylthiocholine); type: cell-based, HEK293; conditions: hek293; Not Active = under 50% inhibition at 10 µM
Sequence of Acetylcholinesterase (P22303 whole entry): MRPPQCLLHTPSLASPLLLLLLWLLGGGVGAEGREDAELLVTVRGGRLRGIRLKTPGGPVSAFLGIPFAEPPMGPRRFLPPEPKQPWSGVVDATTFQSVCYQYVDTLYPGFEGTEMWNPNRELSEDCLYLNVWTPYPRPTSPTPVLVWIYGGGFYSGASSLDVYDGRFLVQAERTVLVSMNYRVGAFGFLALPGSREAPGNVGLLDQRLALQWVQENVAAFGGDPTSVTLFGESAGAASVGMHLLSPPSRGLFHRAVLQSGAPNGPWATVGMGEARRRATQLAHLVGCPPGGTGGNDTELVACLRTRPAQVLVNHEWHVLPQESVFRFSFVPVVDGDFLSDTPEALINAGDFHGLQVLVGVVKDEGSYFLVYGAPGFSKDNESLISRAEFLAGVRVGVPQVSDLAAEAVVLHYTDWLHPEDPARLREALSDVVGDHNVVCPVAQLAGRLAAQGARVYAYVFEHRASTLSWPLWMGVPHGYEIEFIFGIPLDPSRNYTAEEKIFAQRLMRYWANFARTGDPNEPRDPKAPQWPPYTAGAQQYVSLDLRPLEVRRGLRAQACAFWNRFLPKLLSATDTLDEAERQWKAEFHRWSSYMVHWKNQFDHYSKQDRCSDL

Cytochrome P450 2C9 = Cytochrome P450 2C9 (Homo sapiens, UniProt P11712); conditions: bti-tn-5b1-4; further: in other assays of this panel Not Active means under 50% inhibition at 10 µM
Sequence of Cytochrome P450 2C9 (P11712 whole entry): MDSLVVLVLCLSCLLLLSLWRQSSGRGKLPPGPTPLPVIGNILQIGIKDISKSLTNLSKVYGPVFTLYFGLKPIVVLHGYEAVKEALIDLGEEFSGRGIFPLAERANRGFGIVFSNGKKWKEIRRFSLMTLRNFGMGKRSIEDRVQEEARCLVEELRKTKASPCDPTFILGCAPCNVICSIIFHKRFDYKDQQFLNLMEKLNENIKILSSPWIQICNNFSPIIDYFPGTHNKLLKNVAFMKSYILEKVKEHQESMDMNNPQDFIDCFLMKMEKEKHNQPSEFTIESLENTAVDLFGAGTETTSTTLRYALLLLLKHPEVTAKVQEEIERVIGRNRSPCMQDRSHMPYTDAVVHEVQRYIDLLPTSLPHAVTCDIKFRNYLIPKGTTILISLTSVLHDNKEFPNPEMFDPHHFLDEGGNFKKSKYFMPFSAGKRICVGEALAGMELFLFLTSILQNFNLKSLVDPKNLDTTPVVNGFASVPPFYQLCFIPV

Carbonic anhydrase 2 = Carbonic anhydrase 2 (Homo sapiens, UniProt P00918); assay: DRUGMATRIX: Carbonic Anhydrase II enzyme inhibition (substrate: 4-Nitrophenyl acetate (4-NPA)); type: tissue-based, Erythrocyte; conditions: erythrocyte; Not Active = under 50% inhibition at 10 µM
Cytochrome P450 2A6 = target: T5, Cytochrome P450 2A6 (Homo sapiens, UniProt P11509); conditions: bti-tn-5b1-4; further: in other assays of this panel Not Active means under 50% inhibition at 10 µM
T5 sequence (P11509 whole entry): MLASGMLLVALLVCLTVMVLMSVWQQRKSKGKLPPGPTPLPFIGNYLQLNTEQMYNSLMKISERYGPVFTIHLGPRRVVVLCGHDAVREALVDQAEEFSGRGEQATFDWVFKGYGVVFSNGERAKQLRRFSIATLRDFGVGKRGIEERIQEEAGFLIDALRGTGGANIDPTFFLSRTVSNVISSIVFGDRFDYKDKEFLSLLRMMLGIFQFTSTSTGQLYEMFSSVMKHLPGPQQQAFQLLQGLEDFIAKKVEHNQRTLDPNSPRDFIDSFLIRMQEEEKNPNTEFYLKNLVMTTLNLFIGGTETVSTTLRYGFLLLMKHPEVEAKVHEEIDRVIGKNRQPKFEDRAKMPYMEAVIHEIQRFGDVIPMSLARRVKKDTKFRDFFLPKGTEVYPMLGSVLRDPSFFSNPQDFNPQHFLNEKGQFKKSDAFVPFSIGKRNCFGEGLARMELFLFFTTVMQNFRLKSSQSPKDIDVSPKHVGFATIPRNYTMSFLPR

[4] = target: Mitogen-activated protein kinase 14 (Homo sapiens, UniProt Q16539); design: species or system Escherichia coli
Sequence of Mitogen-activated protein kinase 14 (Q16539 whole entry): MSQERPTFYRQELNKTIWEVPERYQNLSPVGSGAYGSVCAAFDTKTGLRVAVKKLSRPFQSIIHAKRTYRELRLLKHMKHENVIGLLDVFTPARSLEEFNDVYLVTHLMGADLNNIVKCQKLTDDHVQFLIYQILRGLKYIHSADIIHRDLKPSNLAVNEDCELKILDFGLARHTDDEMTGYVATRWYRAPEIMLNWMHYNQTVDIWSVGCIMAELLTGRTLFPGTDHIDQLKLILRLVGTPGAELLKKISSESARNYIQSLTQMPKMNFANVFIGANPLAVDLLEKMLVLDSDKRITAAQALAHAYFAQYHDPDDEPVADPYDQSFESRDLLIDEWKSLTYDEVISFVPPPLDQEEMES

[5] = DRUGMATRIX: GABAA, Muscimol, Central radioligand binding (ligand: [3H] Muscimol); type: cell membranes, Rattus norvegicus, Wistar, Brain, Membrane; conditions: Not Active = under 50% inhibition at 10 µM

CN(C)[C@@H]1C(O)=C(C(N)=O)C(=O)[C@@]2(O)C(O)=C3C(=O)c4c(O)cccc4[C@@](C)(O)[C@H]3[C@H](O)[C@@H]12 [OXYTETRACYCLINE]
Not Active: IC50 [1] | Ki [1] | IC50 [2] | IC50 (Adenosine receptor A3) | IC50 (Leukotriene C4 synthase) | IC50 [3] | IC50 (Cannabinoid receptor 1) | IC50 (Substance-K receptor) | IC50 (Acetylcholinesterase) | IC50 (Cytochrome P450 2C9) | Ki (Cytochrome P450 2C9) | IC50 (Carbonic anhydrase 2) | IC50 (Cytochrome P450 2A6) | Ki (Cytochrome P450 2A6) | IC50 [4] | IC50 [5] | Ki [5]

Fc1ccc([C@@H]2CCNC[C@H]2COc2ccc3c(c2)OCO3)cc1 [PAROXETINE]
Not Active: IC50 [1] | Ki [1] | IC50 [2] | IC50 (Adenosine receptor A3) | IC50 (Leukotriene C4 synthase) | IC50 [3] | IC50 (Cannabinoid receptor 1) | IC50 (Substance-K receptor) | IC50 (Acetylcholinesterase) | IC50 (Cytochrome P450 2C9) | Ki (Cytochrome P450 2C9) | IC50 (Carbonic anhydrase 2) | IC50 (Cytochrome P450 2A6) | Ki (Cytochrome P450 2A6) | IC50 [4] | IC50 [5] | Ki [5]

CC(C)(S)[C@@H](N)C(=O)O [PENICILLAMINE]
Not Active: IC50 [1] | Ki [1] | IC50 [2] | IC50 (Adenosine receptor A3) | IC50 (Leukotriene C4 synthase) | IC50 [3] | IC50 (Cannabinoid receptor 1) | IC50 (Substance-K receptor) | IC50 (Acetylcholinesterase) | IC50 (Cytochrome P450 2C9) | Ki (Cytochrome P450 2C9) | IC50 (Carbonic anhydrase 2) | IC50 (Cytochrome P450 2A6) | Ki (Cytochrome P450 2A6) | IC50 [4] | IC50 [5] | Ki [5]

CC(=O)CCCCn1c(=O)c2c(ncn2C)n(C)c1=O [PENTOXIFYLLINE]
Not Active: IC50 [1] | Ki [1] | IC50 [2] | IC50 (Adenosine receptor A3) | IC50 (Leukotriene C4 synthase) | IC50 [3] | IC50 (Cannabinoid receptor 1) | IC50 (Substance-K receptor) | IC50 (Acetylcholinesterase) | IC50 (Cytochrome P450 2C9) | Ki (Cytochrome P450 2C9) | IC50 (Carbonic anhydrase 2) | IC50 (Cytochrome P450 2A6) | Ki (Cytochrome P450 2A6) | IC50 [4] | IC50 [5] | Ki [5]

O=C1NC(=O)C(c2ccccc2)(c2ccccc2)N1 [PHENYTOIN]
Not Active: IC50 [1] | Ki [1] | IC50 [2] | IC50 (Adenosine receptor A3) | IC50 (Leukotriene C4 synthase) | IC50 [3] | IC50 (Cannabinoid receptor 1) | IC50 (Substance-K receptor) | IC50 (Acetylcholinesterase) | IC50 (Cytochrome P450 2C9) | Ki (Cytochrome P450 2C9) | IC50 (Carbonic anhydrase 2) | IC50 (Cytochrome P450 2A6) | Ki (Cytochrome P450 2A6) | IC50 [4] | IC50 [5] | Ki [5]

C=C(C)[C@@H]1[C@H]2OC(=O)[C@@H]1[C@]1(O)C[C@H]3O[C@]34C(=O)O[C@H]2[C@]14C [PICROTOXININ]
Not Active: IC50 [1] | Ki [1] | IC50 [2] | IC50 (Adenosine receptor A3) | IC50 (Leukotriene C4 synthase) | IC50 [3] | IC50 (Cannabinoid receptor 1) | IC50 (Substance-K receptor) | IC50 (Acetylcholinesterase) | IC50 (Cytochrome P450 2C9) | Ki (Cytochrome P450 2C9) | IC50 (Carbonic anhydrase 2) | IC50 (Cytochrome P450 2A6) | Ki (Cytochrome P450 2A6) | IC50 [4] | IC50 [5] | Ki [5]

CN1C(C(=O)Nc2ccccn2)=C(O)c2ccccc2S1(=O)=O [PIROXICAM]
Not Active: IC50 [1] | Ki [1] | IC50 [2] | IC50 (Adenosine receptor A3) | IC50 (Leukotriene C4 synthase) | IC50 [3] | IC50 (Cannabinoid receptor 1) | IC50 (Substance-K receptor) | IC50 (Acetylcholinesterase) | IC50 (Cytochrome P450 2C9) | Ki (Cytochrome P450 2C9) | IC50 (Carbonic anhydrase 2) | IC50 (Cytochrome P450 2A6) | Ki (Cytochrome P450 2A6) | IC50 [4] | IC50 [5] | Ki [5]
